Measured values taken from patent US10508120B2, “TYK2 inhibitors and uses thereof” (Nimbus Lakshmi, Inc., priority 2017, dated 2019).
Where two headings read alike, the source gives them in different places.

Assays:
[1] = molecular target: human TYK2 (JH2domain-pseudokinase) (Homo sapiens (Human), UniProt P29597); experiment: TYK2 JH2 Domain Binding Assay (KINOMEscan)
Summary of the method: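 Competition binding of an NFkB-DBD fusion of human TYK2 JH2 (G556–D888), expressed in HEK293 and used as crude extract at <0.1 nM, against immobilized ligand beads; 1 h at room temperature in PBS/Tween/DTT/BSA buffer, 0.9% DMSO.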

Tyk2 kinase domain (DH1) = Tyk2 kinase domain (DH1) (Homo sapiens (Human), UniProt P29597); experiment: Tyk2 Radioactive Kinase Assay; format: biochemical; details: read-out: Tyk2 JH1% Inhibition @ 10 μM
Summary of the method: (§1)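 Single-point screen: 10 μM test compound, radioactive kinase read-out, percent inhibition reported for each kinase domain.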

JAK2 kinase domain (JH1) = JAK2 kinase domain (JH1) (Homo sapiens (Human), UniProt O60674); experiment: JAK2 Radioactive Kinase Assay; format: biochemical; details: read-out: JAK2 JH1% Inhibition @ 10 μM
Summary of the method: as §1

Chain of JAK2 kinase domain (JH1) (O60674 849-1124): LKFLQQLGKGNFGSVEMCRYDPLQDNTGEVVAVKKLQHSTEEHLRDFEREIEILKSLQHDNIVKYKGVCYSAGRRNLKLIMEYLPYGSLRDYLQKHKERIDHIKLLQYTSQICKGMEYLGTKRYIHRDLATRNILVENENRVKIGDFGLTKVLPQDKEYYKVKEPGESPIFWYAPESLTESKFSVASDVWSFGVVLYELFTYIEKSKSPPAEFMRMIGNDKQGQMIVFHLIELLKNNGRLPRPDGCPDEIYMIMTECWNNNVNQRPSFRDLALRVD
Chain of human TYK2 (JH2domain-pseudokinase) (P29597 556-888): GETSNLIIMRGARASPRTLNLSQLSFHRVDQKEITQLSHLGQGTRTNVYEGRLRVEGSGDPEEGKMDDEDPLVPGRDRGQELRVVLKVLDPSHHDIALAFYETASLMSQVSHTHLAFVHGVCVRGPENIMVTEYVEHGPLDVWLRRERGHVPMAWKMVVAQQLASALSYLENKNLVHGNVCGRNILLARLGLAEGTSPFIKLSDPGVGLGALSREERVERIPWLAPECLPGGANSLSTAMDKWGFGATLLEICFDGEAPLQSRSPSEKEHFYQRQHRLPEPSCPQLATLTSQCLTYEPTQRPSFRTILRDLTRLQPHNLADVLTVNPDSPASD
Chain of Tyk2 kinase domain (DH1) (P29597 897-1176): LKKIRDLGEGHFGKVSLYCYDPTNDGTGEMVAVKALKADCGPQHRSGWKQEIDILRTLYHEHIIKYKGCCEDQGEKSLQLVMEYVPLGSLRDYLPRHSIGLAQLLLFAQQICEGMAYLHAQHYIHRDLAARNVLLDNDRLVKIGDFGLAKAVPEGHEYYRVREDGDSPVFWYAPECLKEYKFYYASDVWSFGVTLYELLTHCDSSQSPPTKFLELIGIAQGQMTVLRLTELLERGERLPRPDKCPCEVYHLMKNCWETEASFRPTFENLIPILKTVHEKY

Row | Structure (SMILES) | Kd [1] | inhibition at 10 µM (Tyk2 kinase domain (DH1); compound at 10 μM, ATP 10 μM) | inhibition at 10 µM (JAK2 kinase domain (JH1); compound at 10 μM, ATP 10 μM) | inhibition at 10 µM (Tyk2 kinase domain (DH1); 10 μM compound, 10 μM ATP) | inhibition at 10 µM (JAK2 kinase domain (JH1); 10 μM compound, 10 μM ATP)
1 | Nc1cc(Nc2cccnc2OC(F)(F)F)nc2c(C(=O)NC3CC3)cnn12 [I-113, 7-amino-N-cyclopropyl-5-((2-(trifluoromethoxy)pyridin-3-yl)amino)pyrazolo[1,5-a]pyrimidine-3-carboxamide] | 1 to 10 nM | > 90% | > 90% | – | –
2 | CNc1cc(Nc2cccc([C@H]3CCCOC3)n2)nc2c(C(=O)NC3COCC3O)cnn12 (stereo partly drawn) [I-695, N-(4-hydroytetrahydrofuran-3-yl)-7-(methylamino)-5-((6-((R)-tetrahydro-2H-pyran-3-yl)pyridin-2-yl)amino)pyrazolo[1,5-a]pyrimidine-3-carboxamide] | < 0.2 nM | < 50% | < 50% | – | –
3 | CNc1cc(Nc2cc(Cl)cn(C3CNC3)c2=O)nc2c(C(N)=O)cnn12 [I-40] | 0.2 to 1 nM | < 50% | < 50% | – | –
4 | CNc1cc(Nc2cccn(-c3cccc(F)c3)c2=O)nc2c(C(=O)NC[C@@H](C)CO)cnn12 [I-1033] | < 0.2 nM | – | – | < 50% | < 50%
5 | CNc1cc(Nc2cc(C)cnc2OC2CC2)nc2c(C(=O)NC3CCC3)cnn12 [I-278] | 0.2 to 1 nM | < 50% | < 50% | – | –
6 | CNc1cc(Nc2cccn(-c3ccccn3)c2=O)nc2c(C(=O)N[C@@H]3CC[C@@H]3O)cnn12 [I-743] | < 0.2 nM | < 50% | < 50% | – | –
7 | CNc1cc(Nc2cccn(-c3ccc(C(=O)N4CCCC4)cn3)c2=O)nc2c(C(=O)N[C@H]3C[C@H]3F)cnn12 [I-128] | < 0.2 nM | < 50% | < 50% | – | –
8 | CNc1cc(Nc2cc(C)c(=O)n(-c3cnn(C)c3)c2)nc2c(C(N)=O)cnn12 [I-287, 5-((5-methyl-1-(1-methyl-1H-pyrazol-4-yl)-6-oxo-1,6-dihydropyridin-3-yl)amino)-7-(methylamino)pyrazolo[1,5-a]pyrimidine-3-carboxamide] | 1 to 10 nM | < 50% | < 50% | – | –
9 | CNc1cc(Nc2cccn(C3CCOCC3)c2=O)nc2c(C(=O)N[C@H]3CC[C@@H]3O)cnn12 [I-528] | < 0.2 nM | < 50% | < 50% | – | –
10 | CNc1cc(Nc2cccn(C3CCCCC3)c2=O)nc2c(C(=O)NCC(C)CO)cnn12 (stereo not drawn) [I-944] | < 0.2 nM | – | – | < 50% | < 50%
11 | CNc1cc(Nc2cccn([C@H]3CCN(CCF)C3)c2=O)nc2c(C(=O)NC3CC3)cnn12 [I-932] | 0.2 to 1 nM | – | – | < 50% | < 50%
12 | CNc1cc(-c2cn(C(C)C)c3ncc(Cl)cc23)nc2c(C(=O)NC3CC3)cnn12 [I-253, 5-(5-chloro-1-isopropyl-1H-pyrrolo[2,3-b]pyridin-3-yl)-N-cyclopropyl-7-(methylamino)pyrazolo[1,5-a]pyrimidine-3-carboxamide] | 0.2 to 1 nM | < 50% | < 50% | – | –
13 | CNc1cc(Nc2cccn(C(C)C)c2=O)nc2c(C(=O)N[C@H]3CC[C@H]3O)cnn12 [I-894] | < 0.2 nM | – | – | < 50% | < 50%
14 | CNc1cc(Nc2cc(C)nc(N3CC[C@@H](OC)C3)c2)nc2c(C(N)=O)cnn12 [I-29] | 1 to 10 nM | < 50% | < 50% | – | –
15 | CNc1cc(Nc2cccn(C3CCN(CCF)CC3)c2=O)nc2c(C(=O)N[C@@H]3CC[C@H]3O)cnn12 [I-845] | < 0.2 nM | – | – | < 50% | < 50%
16 | CNc1cc(Nc2cccn(C3CC4(COC4)C3)c2=O)nc2c(C(=O)NC3CC3)cnn12 [I-550] | < 0.2 nM | < 50% | < 50% | – | –
